Earlier results as cited in patent publication US20060099230A1, “Novel formulations of eprosartan with enhanced bioavailability” (priority 2004, published 2006).
Where a name gives a salt, the structure may show the parent alone.

Details: for bioavailability (mean absolute / oral): conventional formulation, dose not stated

bioavailability (mean absolute / oral) | effect of food on absorption (administered with food) | accumulation (chronic use) | absolute bioavailability (following a 300 mg oral dose) | dose proportionality of plasma concentrations (over the 100 mg to 800 mg dose range) | SMILES
13% | – | – | – | – | CCCCc1ncc(/C=C(\Cc2cccs2)C(=O)O)n1Cc1ccc(C(=O)O)cc1 [eprosartan mesylate]
13% | delays absorption | does not significantly accumulate | approximately 13% | slightly less than dose-proportional | CCCCc1ncc(/C=C(\Cc2cccs2)C(=O)O)n1Cc1ccc(C(=O)O)cc1 [eprosartan, (E)-α-[2-n-butyl-1-[(4-carboxyphenyl)methyl]-1H-imidazol-5-yl]methylene-2-thiophenepropionic acid]
